One series concerns gag-pol stem loop. Briefly: Gel shift analysis of RNA oligonucleotide sets binding to HIV gag-pol stem loop (triple strand). The conditions noted are these: 100 mM NaCl, 25 mM TRIS acetate pH5, 2 mM MgCl2, 1 mM spermidine. The text has this: Binding to double stranded DNA or RNA is possible by formation of a three stranded complex with the incoming third strand binding in the major groove of the duplex RNA or DNA. The molecular nature of the interaction between the oligomer and target need not be known in order to practice the technique. Thus, it is possible that novel interactions between oligomers and DNA or RNA will be responsible for binding. One of the limitations in the design of triple strand interactions is the need to have a long stretch of homopurines as a target. The 3' (right) side of the gag-pol stem loop is homopurine except for a pair of cytosines near the bottom of the stem. To determine the best oligonucleotide to bind to the gag-pol stem loop, a group of RNA oligonucleotide sets was designed to bind to the purine-rich strand of the gag-pol stem-loop by Hoogstein base pairing and prepared in accordance with Examples 2 and 6. Binding to the gag-pol stemloop was measured by gel shift analysis as previously described in Example 8 with the following modifications: the radiolabeled gag-pol RNA was incubated with the oligonucleotide in 100 mM NaCl, 25 mM TRIS acetate pH5, 2 mM Mg Cl2, 1 mM spermidine. The gel was a 15% acrylamide with 50 mM NaCl 2 mM MgCl2 added to the running buffer.

In series [1] the test system is HIV-tat protein. Briefly: Competition assay for HIV-tat binding against ΔTAR-B. The conditions noted are these: RNA library pools at 1 μM, 10 μM and 100 μM; ΔTAR-B 100 nM. The text has this:
A truncated version (residues 16-45; ΔTAR) of the TAR hairpin previously shown to bind tat was synthesized using 2'-O-methyl oligonucleotides as described in Example 4 and was biotin conjugated on the 3' end (ΔTAR-B) as described in Example 9. A combinatorial library was synthesized using RNA oligonucleotides with the sequence CCA NNX NNNNGCCUGGGAGCNNNNUGG, where X=A (SEQ ID NO:24), G (SEQ ID NO:25), C (SEQ ID NO:26), or U (SEQ ID NO:27) as described in Example 2 and 6.
The pools of the library at 0, 1, 10, or 100 μM were incubated with 100 μl of purified recombinant tat transcription factor (Repligen) at a concentration of 20 pg/μl for 15'. This and all other steps were carried out at room temperature. The competitor, ΔTAR-B, was then added at a concentration of 100 nM. Following a 20' incubation, the mixture was bound to streptavidin-coated microtiter plates as in Example 33. After the non-bound molecules were washed away with PBS, 100 μl of 1:500 tat antisera was added to each well for 2 hours. Protein A/G-alkaline phosphatase was bound to the tat antibodies followed by the addition of the PNPP substrate and quantitation of A 405 as detailed in Example 33.
In the competition mode library pools which bind the transcription factor prevent binding to the natural target (in this case the competitor ΔTAR) also present in the assay. […]

Series [2] deals with HIV-tat protein. As to the kind of experiment: Capture assay for HIV-tat binding. The conditions noted are these: phosphorothioate library pools at 100 nM. The protocol:
As a positive control, the native double stranded NF-kB binding site was incubated at 100 nM with the same amount of extract. Following the incubation each mixture was added to streptavidin coated microtiter plates (Elkay Lab Systems) and incubated 20 minutes. Unbound molecules were washed away with PBS. 10 μl of PBS plus 5% fetal calf serum was added to each well for 20 minutes at room temperature followed by aspiration and addition of 100 μl of 1:500 tat antisera in PBS plus 1% FCS for 2 hours at room temperature. The wells were then washed with PBS and 100 μl of 1:5000 Protein A/G-alkaline phosphatase (Pierce) added in PBS for 2 hours at room temperature. […] Color development was measured 2 hours later by reading absorbance at 405 nm on a Titertek Multiscan ELISA plate reader.
This and all other steps were carried out at room temperature. […] Protein A/G-alkaline phosphatase was bound to the tat antibodies followed by the addition of the PNPP substrate and quantitation of A 405 as detailed in Example 33.
Each pool of the phosphorothioate combinatorial library described in Example 33 was incubated at a concentration of 100 nM with tat protein as described in Example 34. Following incubation of the protein with the library pools, the complexes were captured on streptavidin plates and binding quantitated as in Example 33. […]

Another series deals with c-rel. As to the kind of experiment: Capture assay for c-rel binding (streptavidin plates, Jurkat nuclear extract). Conditions: library pools at 1 μM; native binding site at 100 nM. The procedure: Crude nuclear extracts were prepared as detailed by Franza, et al., Nature 1987, 330, 391, from Jurkat cells stimulated 4 hours with 1 μM PHA and 100 nM PMA to induce the expression of rel. The extract was then preabsorbed with 100 μl streptavidin agarose per ml for 10 minutes. This was followed with the addition of poly dI.dC as a non specific competitor at a concentration of 100 μg/ml of extract.
Phosphorothioate oligonucleotides were synthesized with the sequence […]-B (SEQ ID NO: 22) and […]-B (SEQ ID NO:23), where B=biotin, as described in Examples 3 and 9. The complementary oligonucleotides were then hybridized to create the double stranded NF-kB binding site, which was used as a positive control in the assay. A combinatorial phosphorothioate library was also synthesized with the general sequence TNNNXNNNT-B, where X=A, G, C, or U as described in Examples 3 and 6.
Each pool of the library was incubated in triplicate at a concentration of 1 μM with 100 μl of the extract for 20 minutes at room temperature. As a positive control, the native double stranded NF-kB binding site was incubated at 100 nM with the same amount of extract. Following the incubation each mixture was added to streptavidin coated microtiter plates (Elkay Lab Systems) and incubated 20 minutes. […] Color development was measured 2 hours later by reading absorbance at 405 nm on a Titertek Multiscan ELISA plate reader.

Take “B2: RNA oligonucleotide (CCCUUCCCGUC; RNA, backbone not given here) [Set B2]”: in the series with gag-pol stem loop, the Kd was 10 µM.
Same read-out and setting: as for “D2: RNA oligonucleotide (CCCUUCCCUUC; RNA, backbone not given here) [Set D2]”, the figure is 10 µM.
Turning to “pool fixed at G: RNA library pool CCA NNX NNNNGCCUGGGAGCNNNNUGG, X=G (CCANNGNNNNGCCUGGGAGCNNNNUGG; RNA, backbone and the base at N not given here)”, in the series on HIV-tat protein [1], the “inhibition of tat binding to ΔTAR, in words” value was “least effect”. The “amount of tat bound, in words” value with HIV-tat protein [2] is “clearly binds more tat than the others”.
Consider “C2: RNA oligonucleotide (CCCUUCCCCUC; RNA, backbone not given here) [Set C2]”, for which, in the series on gag-pol stem loop, the Kd is 1 µM.
In the case of “A2: RNA oligonucleotide (CCCUUCCCAUC; RNA, backbone not given here) [Set A2]”, the dissociation constant (Kd) in the series with gag-pol stem loop was 10 µM.
Consider “native NF-kB binding site: double stranded biotinylated phosphorothioate NF-kB binding site, SEQ ID NO: 22 and 23, positive control (chain 1 GGGGACTTTCCGCTGGGACTTTCTAG; chain 2 CTGGAAAGTCCCAGCGGAAGGTCCCC; all phosphorothioate, sugars by position and methylation of C not given here; biotinylated)”, for which the “amount of c-rel bound, in words” value in the series with c-rel was “binds the greatest amount of rel”.

(Values after patent US5747253A, “Combinatorial oligomer immunoabsorbant screening assay for transcription factors and other biomolecule binding” (Isis Pharmaceuticals, Inc., priority 1995, dated 1998).)
